# From ChEMBL document CHEMBL3351580, “Pyrano-isochromanones as IL-6 inhibitors: synthesis, in vitro and in vivo antiarthritic activity” (J Med Chem, 2014)
# pIC50: −log10 of the molar value. The source made the active and inactive calls. The calls are words filed in the database; no cut-off is given here.
# How the values were obtained:
# THP-1 [1] = test: Inhibition of LPS-induced IL6 production in human THP1 cells after 24 hrs; format: functional, cell-based; details: THP-1, 24 h
# B-cell = test: Inhibition of LPS-induced cell proliferation of B cells (unknown origin) at 10 uM after 72 hrs by MTT assay; format: functional
# THP-1 [2] = test: Inhibition of LPS-induced TNFalpha production in human THP1 cells after 24 hrs; format: functional, cell-based; details: THP-1, 24 h
# [3] = Solubility in water; format: physicochemical
# [4] = Inhibition of concanavalin A-induced cell proliferation of T cells (unknown origin) at 10 uM after 72 hrs by MTT assay; format: functional
# Mus musculus [5] = test: Antiarthritic activity in DBA/1J mouse collagen-induced arthritis model assessed as reduction in IL-1beta level at 3 to 30 mg/kg, po administered once daily for 49 days starting from onset of disease and measured after 3 to 49 days of disease onset by ELISA method; format: functional, organism-based
# Mus musculus [6] = test: Antiinflammatory activity in BALB/c mouse assessed as serum IL6 level at 100 mg/kg, po qd for 5 days followed by LPS challenge 1 hr after last compound dose on fifth day and measured 4 hrs post LPS challenge by ELISA method (reference value: 410 +/- 95 pg/mL); format: functional
# Mus musculus [7] = test: Antiarthritic activity in DBA/1J mouse collagen-induced arthritis model assessed as reduction in anticollagen antibody IgG2a level at 3 to 30 mg/kg, po administered once daily for 49 days starting from onset of disease and measured after 49 days of disease onset by ELISA method; format: functional, organism-based
# [8] = Solubility in SIF solution; format: physicochemical
# THP-1 [9] = test: Cytotoxicity against human THP1 cells after 24 hrs by MTT assay; format: cell-based; details: THP-1, 24 h
# THP-1 [10] = test: Cytotoxicity against human THP1 cells after 48 hrs by MTT assay; format: cell-based; details: THP-1, 48 h
# THP-1 [11] = test: Inhibition of LPS-induced IL-1beta production in human THP1 cells at 10 uM after 24 hrs; format: functional; details: THP-1, 24 h
# Mus musculus [12] = test: Immunosuppressive activity in BALB/c mouse assessed as reduction in SRBC-induced humoral immunity by measuring IgG level at 3 to 30 mg/kg, po administered once daily for 14 days measured 4 hrs post last dose; format: functional, organism-based
# THP-1 [13] = test: Inhibition of LPS-induced nitric oxide production in human THP1 cells at 10 uM after 24 hrs by Griess assay; format: functional; details: THP-1, 24 h
# Mus musculus [14] = test: Antiarthritic activity in BALB/c mouse assessed as reduction in SRBC-induced blood IL2 level administered orally once daily for 14 days measured 4 hrs post last dose by ELISA method; format: functional, organism-based
# [15] = Therapeutic index, ratio of cytotoxic IC50 for human THP1 cells by MTT assay to IC50 for inhibition of LPS-induced IL6 production in human THP1 cells; format: cell-based, THP-1; details: read-out: Ratio IC50
# [16] = Solubility in PBS buffer; format: physicochemical
# Mus musculus [17] = test: Antiinflammatory activity in BALB/c mouse assessed as serum TNFalpha level at 100 mg/kg, po qd for 5 days followed by LPS challenge 1 hr after last compound dose on fifth day and measured 4 hrs post LPS challenge by ELISA method (reference value: 717 +/- 218 pg/mL); format: functional
# [18] = target: Inhibitor of NF-kappa-B kinase (IKK) (Homo sapiens) (UniProt O14920+O15111+Q9Y6K9); test: Inhibition of IKKbeta expression in human THP1 cells at 20 to 100 uM by Western blotting method; format: functional, cell-based; details: THP-1
# Mus musculus [19] = test: Antiarthritic activity in DBA/1J mouse collagen-induced arthritis model assessed as reduction in TNFalpha level at 3 to 30 mg/kg, po administered once daily for 49 days starting from onset of disease and measured after 3 to 49 days of disease onset by ELISA method; format: functional, organism-based
# Mus musculus [20] = test: Antiarthritic activity in BALB/c mouse assessed as reduction in SRBC-induced blood IL4 level administered orally once daily for 14 days measured 4 hrs post last dose by ELISA method; format: functional, organism-based
# Mus musculus [21] = test: Antiarthritic activity in DBA/1J mouse collagen-induced arthritis model assessed as reduction in paw swelling at 30 mg/kg, po administered once daily for 49 days starting from onset of disease; format: functional; details: 1176 h
# Mus musculus [22] = test: Immunosuppressive activity in BALB/c mouse assessed as reduction in SRBC-induced DTH response at 3 to 30 mg/kg, po administered once daily for 14 days measured 4 hrs post last dose; format: functional, organism-based
# [23] = Solubility in SGF solution; format: physicochemical
# Mus musculus [24] = test: Antiinflammatory activity in BALB/c mouse assessed as serum nitric oxide level at 10 mg/kg, po qd for 5 days followed by LPS challenge 1 hr after last compound dose on fifth day and measured 4 hrs post LPS challenge by Griess assay (reference value: 6.95 +/- 1.81 uM); format: functional
# Mus musculus [25] = test: Immunosuppressive activity in BALB/c mouse assessed as reduction in SRBC-induced humoral immunity by measuring IgM level at 3 to 30 mg/kg, po administered once daily for 14 days measured 4 hrs post last dose; format: functional, organism-based
# Mus musculus [26] = test: Antiinflammatory activity in BALB/c mouse assessed as serum IL6 level at 10 mg/kg, po qd for 5 days followed by LPS challenge 1 hr after last compound dose on fifth day and measured 4 hrs post LPS challenge by ELISA method (reference value: 410 +/- 95 pg/mL); format: functional
# Mus musculus [27] = test: Antiarthritic activity in BALB/c mouse assessed as reduction in SRBC-induced blood IFNgamma level administered orally once daily for 14 days measured 4 hrs post last dose by ELISA method; format: functional, organism-based
# Mus musculus [28] = test: Antiarthritic activity in DBA/1J mouse collagen-induced arthritis model assessed as reduction in anticollagen antibody IgG1 level at 3 to 30 mg/kg, po administered once daily for 49 days starting from onset of disease and measured after 49 days of disease onset by ELISA method; format: functional, organism-based
# Mus musculus [29] = test: Antiarthritic activity in DBA/1J mouse collagen-induced arthritis model assessed as reduction in IL6 level at 3 to 30 mg/kg, po administered once daily for 49 days starting from onset of disease and measured after 3 to 49 days of disease onset by ELISA method; format: functional, organism-based
# Mus musculus [30] = test: Antiarthritic activity in DBA/1J mouse collagen-induced arthritis model assessed as reduction in anticollagen antibody IgG1 level at 3 to 30 mg/kg, po administered once daily for 49 days starting from onset of disease and measured after 14 days of disease onset by ELISA method; format: functional, organism-based
# Mus musculus [31] = test: Antiinflammatory activity in BALB/c mouse assessed as serum nitric oxide level at 100 mg/kg, po qd for 5 days followed by LPS challenge 1 hr after last compound dose on fifth day and measured 4 hrs post LPS challenge by Griess assay (reference value: 6.95 +/- 1.81 uM); format: functional
# Mus musculus [32] = test: Antiinflammatory activity in BALB/c mouse assessed as serum TNFalpha level at 10 mg/kg, po qd for 5 days followed by LPS challenge 1 hr after last compound dose on fifth day and measured 4 hrs post LPS challenge by ELISA method (reference value: 717 +/- 218 pg/mL); format: functional
# Mus musculus [33] = test: Antiarthritic activity in DBA/1J mouse collagen-induced arthritis model assessed as reduction in anticollagen antibody IgG2a level at 3 to 30 mg/kg, po administered once daily for 49 days starting from onset of disease and measured after 14 days of disease onset by ELISA method; format: functional, organism-based
smiles,measurement,setting,value
CCOC(=O)N1CCN(Cc2c(O)c(OC)c(O)c3c2C(=O)O[C@@H]2[C@@H](O)[C@H](O)[C@@H](CO)O[C@@H]32)CC1,pIC50,THP-1 [1],6.75
same,inhibition at 10 µM,B-cell,9%
same,pIC50,THP-1 [2],< 4.52
same,solubility,[3],> 1500 µg/mL
same,inhibition at 10 µM,[4],27%
COc1c(O)c(CN2CCC[C@H]2CO)c2c(c1O)[C@@H]1O[C@H](CO)[C@@H](O)[C@H](O)[C@H]1OC2=O,pIC50,THP-1 [1],6.13
same,inhibition at 10 µM,B-cell,31.6%
same,pIC50,THP-1 [2],4.87
same,solubility,[3],> 1500 µg/mL
same,inhibition at 10 µM,[4],37.5%
COc1c(O)c(CN(C)CC(=O)O)c2c(c1O)[C@@H]1O[C@H](CO)[C@@H](O)[C@H](O)[C@H]1OC2=O,pIC50,THP-1 [1],5.79
same,inhibition at 10 µM,B-cell,17%
same,pIC50,THP-1 [2],< 4.52
same,solubility,[3],> 1500 µg/mL
same,inhibition at 10 µM,[4],4%
COc1c(O)c(CN2CCC(Cc3ccccc3)CC2)c2c(c1O)[C@@H]1O[C@H](CO)[C@@H](O)[C@H](O)[C@H]1OC2=O,pIC50,THP-1 [1],6.43
same,inhibition at 10 µM,B-cell,18.2%
same,pIC50,THP-1 [2],< 4.52
same,solubility,[3],> 1500 µg/mL
same,inhibition at 10 µM,[4],16%
COc1c(O)c(CN2CCC(c3ccccc3)CC2)c2c(c1O)[C@@H]1O[C@H](CO)[C@@H](O)[C@H](O)[C@H]1OC2=O,pIC50,THP-1 [1],6.45
same,inhibition at 10 µM,B-cell,28.2%
same,pIC50,THP-1 [2],< 4.52
same,solubility,[3],> 1500 µg/mL
same,inhibition at 10 µM,[4],37.2%
COc1c(O)c(CN2C[C@@H](O)CC2C(=O)O)c2c(c1O)[C@@H]1O[C@H](CO)[C@@H](O)[C@H](O)[C@H]1OC2=O (some centres undefined),pIC50,THP-1 [1],6.49
same,inhibition at 10 µM,B-cell,11.4%
same,pIC50,THP-1 [2],< 4.52
same,solubility,[3],> 1500 µg/mL
same,inhibition at 10 µM,[4],6.5%
CCN1CCN(Cc2c(O)c(OC)c(O)c3c2C(=O)O[C@@H]2[C@@H](O)[C@H](O)[C@@H](CO)O[C@@H]32)CC1,pIC50,THP-1 [1],6.71
same,inhibition at 10 µM,B-cell,44.2%
same,pIC50,THP-1 [2],< 4.52
same,solubility,[3],> 1500 µg/mL
same,inhibition at 10 µM,[4],34.2%
COc1c(O)c(CN2CCOCC2)c2c(c1O)[C@@H]1O[C@H](CO)[C@@H](O)[C@H](O)[C@H]1OC2=O,pIC50,THP-1 [1],5.73
same,inhibition at 10 µM,B-cell,31.6%
same,pIC50,THP-1 [2],4.80
same,solubility,[3],> 1500 µg/mL
same,inhibition at 10 µM,[4],37.5%
COc1c(O)c(CN2CCCC2)c2c(c1O)[C@@H]1O[C@H](CO)[C@@H](O)[C@H](O)[C@H]1OC2=O,pIC50,THP-1 [1],6.12
same,inhibition at 10 µM,B-cell,2.5%
same,pIC50,THP-1 [2],< 4.52
same,solubility,[3],> 1500 µg/mL
same,inhibition at 10 µM,[4],14.8%
COc1c(O)c(CN2CCC[C@H]2C(=O)O)c2c(c1O)[C@@H]1O[C@H](CO)[C@@H](O)[C@H](O)[C@H]1OC2=O,pIC50,THP-1 [1],6.04
same,inhibition at 10 µM,B-cell,28.2%
same,pIC50,THP-1 [2],4.59
same,solubility,[3],> 1500 µg/mL
same,inhibition at 10 µM,[4],17.3%
COc1c(O)c(CN2CCCCC2)c2c(c1O)[C@@H]1O[C@H](CO)[C@@H](O)[C@H](O)[C@H]1OC2=O,pIC50,THP-1 [1],6.50
same,inhibition at 10 µM,B-cell,34.8%
same,pIC50,THP-1 [2],< 4.52
same,solubility,[3],> 1500 µg/mL
same,inhibition at 10 µM,[4],13%
CCCN(CCC)Cc1c(O)c(OC)c(O)c2c1C(=O)O[C@@H]1[C@@H](O)[C@H](O)[C@@H](CO)O[C@@H]21,pIC50,THP-1 [1],6.44
same,inhibition at 10 µM,B-cell,2.8%
same,pIC50,THP-1 [2],< 4.52
same,solubility,[3],> 1500 µg/mL
same,inhibition at 10 µM,[4],10.3%
COc1c(O)c(CN(C)C)c2c(c1O)[C@@H]1O[C@H](CO)[C@@H](O)[C@H](O)[C@H]1OC2=O,pIC50,THP-1 [1],6.68
same,inhibition at 10 µM,B-cell,44%
same,pIC50,THP-1 [2],< 4.52
same,solubility,[3],> 1500 µg/mL
same,inhibition at 10 µM,[4],21.1%
COc1c(O)c(CN2CCN(C)CC2)c2c(c1O)[C@@H]1O[C@H](CO)[C@@H](O)[C@H](O)[C@H]1OC2=O,inhibition,Mus musculus [5],Active
same,Activity,Mus musculus [6],58 pg/mL
same,inhibition,Mus musculus [7],Active
same,solubility,[8],> 1500 µg/mL
same,pIC50,THP-1 [9],3.97
same,pIC50,THP-1 [10],4.17
same,pIC50,THP-1 [1],6.85
same,inhibition at 10 µM,THP-1 [11],41%
same,inhibition at 10 µM,B-cell,49%
same,inhibition,Mus musculus [12],Active
same,inhibition at 10 µM,THP-1 [13],41%
same,inhibition,Mus musculus [14],Dose-dependent effect
same,selectivity ratio,[15],> 400
same,solubility,[16],> 1500 µg/mL
same,Activity,Mus musculus [17],398 pg/mL
same,inhibition,[18],Active
same,inhibition,Mus musculus [19],Active
same,inhibition,Mus musculus [20],Dose-dependent effect
same,inhibition in vivo at 30 mg/kg,Mus musculus [21],28%
same,inhibition,Mus musculus [22],Active
same,solubility,[23],> 1500 µg/mL
same,Activity,Mus musculus [24],2.87 µM
same,inhibition,Mus musculus [25],Active
same,Activity,Mus musculus [26],282 pg/mL
same,pIC50,THP-1 [2],< 4.52
same,solubility,[3],> 1500 µg/mL
same,inhibition,Mus musculus [27],Dose-dependent effect
same,inhibition,Mus musculus [28],Active
same,inhibition,Mus musculus [29],Active
same,inhibition,Mus musculus [30],Active
same,inhibition at 10 µM,[4],36.9%
same,Activity,Mus musculus [31],1.24 µM
same,Activity,Mus musculus [32],672 pg/mL
same,inhibition,Mus musculus [33],Active
